Measured values: ChEMBL document CHEMBL3120074, “p-Terphenyl O-β-glucuronides, DNA topoisomerase inhibitors from Streptomyces sp. LZ35ΔgdmAI” (2014)
Activity calls are given as the source filed them. No cut-off for these calls is given here.

What was measured:
[1] = Antifungal activity against Monilia albican ATCC 10231 at 30 ug/disc after 48 hrs by paper disc diffusion assay; assay type: functional
[2] = target: DNA topoisomerase 2-alpha (Homo sapiens) (UniProt P11388); assay: Inhibition of human recombinant DNA topoisomerase 2alpha-mediated relaxation of supercoiled pBR322 DNA at 100 uM after 30 mins by agarose gel electrophoresis
[3] = species on record: Bos taurus; assay: Inhibition of calf thymus DNA topoisomerase 1-mediated relaxation of supercoiled pBR322 DNA at 100 uM after 30 mins by agarose gel electrophoresis
[4] = test system: Rhizoctonia solani; assay: Antifungal activity against Rhizoctonia solani GXE4 at 30 ug/disc after 48 hrs by paper disc diffusion assay; assay type: functional, organism-based
[5] = test system: Globisporangium ultimum; assay: Antifungal activity against Pythium ultimum PR9.00318 at 30 ug/disc after 48 hrs by paper disc diffusion assay; assay type: functional, organism-based
[6] = test system: Mycolicibacterium smegmatis; assay: Antibacterial activity against Mycobacterium smegmatis MC2 155 at 30 ug/disc after 24 hrs by paper disc diffusion assay; assay type: functional; conditions: str. MC2 155, 24 h, read-out: DIZ
[7] = test system: Bacillus subtilis; assay: Antibacterial activity against Bacillus subtilis ACCC 11060 at 30 ug/disc after 24 hrs by paper disc diffusion assay; assay type: functional; conditions: ACCC 11060, 24 h, read-out: DIZ

DNA topoisomerase 2-alpha (Homo sapiens), sequence (P11388 whole entry): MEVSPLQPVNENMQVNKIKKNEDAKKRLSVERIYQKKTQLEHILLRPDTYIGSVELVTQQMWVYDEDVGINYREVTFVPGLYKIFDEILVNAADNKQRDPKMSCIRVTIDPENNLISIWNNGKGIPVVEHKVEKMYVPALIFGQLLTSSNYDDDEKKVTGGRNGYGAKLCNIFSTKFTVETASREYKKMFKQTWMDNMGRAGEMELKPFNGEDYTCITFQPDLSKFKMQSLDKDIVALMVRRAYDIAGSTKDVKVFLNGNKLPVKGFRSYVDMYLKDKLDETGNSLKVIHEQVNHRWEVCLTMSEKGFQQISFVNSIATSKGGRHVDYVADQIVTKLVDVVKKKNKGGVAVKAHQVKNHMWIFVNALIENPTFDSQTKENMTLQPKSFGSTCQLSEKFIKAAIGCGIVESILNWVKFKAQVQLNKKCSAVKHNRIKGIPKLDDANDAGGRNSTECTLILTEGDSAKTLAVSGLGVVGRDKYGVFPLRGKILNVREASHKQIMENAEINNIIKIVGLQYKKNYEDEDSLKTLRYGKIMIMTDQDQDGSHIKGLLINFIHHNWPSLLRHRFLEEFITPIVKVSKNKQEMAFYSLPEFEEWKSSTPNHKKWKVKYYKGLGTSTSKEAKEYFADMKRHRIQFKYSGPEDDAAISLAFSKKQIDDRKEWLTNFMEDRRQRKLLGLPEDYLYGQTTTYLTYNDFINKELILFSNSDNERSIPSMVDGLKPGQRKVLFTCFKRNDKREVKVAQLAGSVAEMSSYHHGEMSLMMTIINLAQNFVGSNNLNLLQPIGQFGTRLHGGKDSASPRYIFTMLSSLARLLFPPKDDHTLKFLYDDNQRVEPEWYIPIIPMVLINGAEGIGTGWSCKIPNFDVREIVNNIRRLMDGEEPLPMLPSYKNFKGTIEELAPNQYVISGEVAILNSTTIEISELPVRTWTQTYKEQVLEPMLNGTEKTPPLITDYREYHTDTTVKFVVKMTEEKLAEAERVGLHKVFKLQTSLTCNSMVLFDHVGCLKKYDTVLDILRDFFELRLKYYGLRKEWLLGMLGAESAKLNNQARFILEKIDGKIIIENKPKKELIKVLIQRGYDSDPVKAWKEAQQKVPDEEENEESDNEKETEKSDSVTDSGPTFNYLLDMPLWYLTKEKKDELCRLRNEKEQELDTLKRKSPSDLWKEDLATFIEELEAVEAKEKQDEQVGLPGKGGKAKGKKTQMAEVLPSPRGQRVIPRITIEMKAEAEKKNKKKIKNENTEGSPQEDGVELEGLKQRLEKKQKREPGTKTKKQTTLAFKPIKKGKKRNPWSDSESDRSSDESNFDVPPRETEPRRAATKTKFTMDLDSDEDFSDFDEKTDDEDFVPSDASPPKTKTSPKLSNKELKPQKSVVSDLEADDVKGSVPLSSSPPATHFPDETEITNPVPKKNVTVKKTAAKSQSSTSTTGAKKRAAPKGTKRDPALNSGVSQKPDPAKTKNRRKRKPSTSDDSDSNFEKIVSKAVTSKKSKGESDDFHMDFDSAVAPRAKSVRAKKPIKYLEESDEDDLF

Row | Compound | Activity [1] | inhibition [2] | inhibition [3] | Activity [4] | Activity [5] | zone of inhibition at 30 µg/disc [6] [mm] | zone of inhibition at 30 µg/disc [7] [mm]
1 | Cn1c(=O)sc2c(-c3ccccc3)c(O)c(O[C@@H]3O[C@H](C(=O)O)[C@@H](O)[C@H](O)[C@H]3O)c(-c3ccccc3)c21 | inactive | inactive | inactive | inactive | inactive | – | –
2 | O=C(O)[C@H]1O[C@@H](Oc2c(O)c(-c3ccccc3)c3scnc3c2-c2ccccc2)[C@H](O)[C@@H](O)[C@@H]1O | inactive | inactive | inactive | inactive | inactive | – | –
3 | COc1c(-c2ccccc2)cc(O[C@@H]2O[C@H](C(=O)O)[C@@H](O)[C@H](O)[C@H]2O)c(-c2ccccc2)c1O | inactive | Active | – | inactive | inactive | – | –
4 | O=C(O)[C@H]1O[C@@H](Oc2c(-c3ccccc3)cc(O)c(-c3ccccc3)c2O)[C@H](O)[C@@H](O)[C@@H]1O | inactive | Active | – | inactive | inactive | 11.2 | 15.8
5 | COC(=O)[C@H]1O[C@@H](Oc2c(-c3ccccc3)cc(O)c(-c3ccccc3)c2O)[C@H](O)[C@@H](O)[C@@H]1O | inactive | Active | Active | inactive | inactive | 12 | 14
